Data taken from US20090247520A1, “INHIBITORS OF ANTIGEN RECEPTOR-INDUCED NF-kappa B ACTIVATION” (The Burnham Institute for Medical Research, priority 2008, published 2009).

Columns and labels:
[1] = system: PMA/Ionomycin-induced NF-κB reporter gene activity; experiment: NF-κB luciferase reporter gene assay, PMA/Ionomycin-stimulated HEK293-NF-κB-luc cells; type: cell-based; settings: for inhibition of PMA/Ionomycin-induced NF-κB luciferase activity: HEK293; for IC50: Table II, read-out: IC50, Inhibition of antigen receptor-mediated Nf-κB
From the text: The strategy for compound library screening entailed using phorbol ester (phorbol myristic acetate [PMA]) and Ca^2+-ionophore Ionomycin to achieve PKC activation, mimicking the initiating events in the antigen receptor pathway. For convenience, we used HEK293 epithelial cells, in which it has previously been shown by siRNA-mediated gene silencing and transfection of dominant-negative mutants that PMA/Ionomycin-induced NF-κB activation is dependent on CARMA1, Bcl-10, and MALT. HEK293 cells were stably transfected with a luciferase reporter gene driven by a NF-κB responsive promoter, and the responsiveness of this integrated promoter to various NF-κB inducing stimuli was confirmed, including PMA/Ionomycin and TNF. Using these cells, 96- and 384-well plate-based high throughput screening (HTS) assays were established, with good assay performance characteristics (Z′>0.5) (PubChem AID=1384). We initially screened 53,280 chemical compounds at an average concentration of 5 μM, of which 519 primary hits were obtained (based on cut-off of 50% inhibition). Of these, 248 confirmed upon repeat testing (FIG. 1).
Cell engineering. HEK293 cells were co-transfected with pUC13-4xNFκB-Luc and p-TK-puromycin-resistance plasmids. Stable clones were selected by culture in Dulbecco's Modified Eagle's Media (InVitrogen) supplemented with 10% heat-inactivated fetal bovine serum (FBS) (Hyclone), 1% v/v penicillin-streptomycin (InVitrogen) containing 1 μg/mL puromycin. Individual clones were tested for responsiveness to PMA/Ionomycin- and to TNF-induced NF-κB reporter gene activity, and a clone was selected for HTS.
HTS. NF-κB-luciferase expressing HEK293 cells were seeded at […] per well in white 96 well plates (Greiner Bio-One) in 90 μl of DMEM and incubated overnight. 10 μl of compound-containing solution was added to each well (final 1.5 μg/mL in 1% DMSO) using a liquid handler (Biomek™ FX; Beckman Coulter). After 2 h incubation, cells were stimulated using 11 μl of a PMA (final 100 ng/mL; Calbiochem) and ionomycin (final 50 ng/mL; Calbiochem) in DMEM. Cell plates were incubated for 16 h before media was removed and 40 μl of 0.5× passive lysis buffer (Promega Corp.) was added to cell plates. Plates were allowed to stand at room temperature for at least 15 minutes before adding 40 μl of 0.125× luciferin substrate (Promega Corp.) to each well. Plates were analyzed within 30 seconds with a Criterion Analyst™ using the luminescence method (0.1 second read/well).
Several compounds synthesized by the methods described herein were tested for their efficacy at inhibiting Nf-κB activation.

[2] = system: PMA/Ionomycin-stimulated IL-8 production; experiment: PMA/Ionomycin-stimulated IL-8 production by HEK293 reporter cells (ELISA); type: cell-based, human; settings: CID-2998237 at concentrations as high as 4 μM
Description: (§1) (A) Structures of two hit compounds, CID-2858522 (left) and CID-2998237 (right) are shown; (B, C) 293-NF-κB-luc cells were pretreated for 2 hrs with various concentration of either CID-2858522 (B) or CID-29982387 (C) and then stimulated with TNF (10 ng/mL) or PMA/lonomycin (10 ng/mL; 5 ng/mL) for 16 h. Luciferase activity was measured and data were expressed as a percentage relative to control treatment with DMSO only (mean±SD; n=3). (D) 293-NF-κB-luc cells were pretreated for 2 h with various concentrations of CID-2858522 or CID-2998237, then stimulated with PMA/lonomycin for 16 h. IL-8 release into the medium was measured, expressing data as a percentage relative to control cultures treated with DMSO (mean±SD; n=3). (E) 293-NF-κB-luc cells were pretreated with CID-2858522 and then stimulated with PDBu for 16 h, IL-8 production and NF-κB luciferase activity were measured as above. (F) 293-NF-κB-luc cells were pretreated for 2 h with various concentrations of CID-2858522 or a PKC inhibitor (Bisindolylmaleimide I) at 1 μM followed by PMA/Ionomycin (10 ng/mL) stimulation for 2 h, then p65-DNA-binding activity was measured in nuclear extracts (10 μg protein), expressing data as fold-increase relative to unstimulated cells (mean±SD; n=3).
Lymphokine measurements. Human IL-2 or IL-8 levels in culture medium were measured by Enzyme-Linked Immunosorbent Assays (ELISAs), using BD OptEIA ELISAs (BD Biosciences, San Diego, Calif.), according to the manufacturer's protocol, using 96-well ELISA plates (BD Biosciences) and measuring absorbance within 30 minutes of initiating reactions using a SpectraMax 190 spectrophotometer (Molecular Devices).

[3] = system: TNF-induced NF-κB reporter gene activity; experiment: TNF-induced NF-κB reporter counter-screen in HEK293-NFκB-Luc cells; type: cell-based; settings: TNF 10 ng/mL; CID-2858522 at concentrations as high as 4 μM
Description: as §1
Counter Screening and Secondary Assays. […] Luciferase activity was measured using Britelite kit (Perkin Elmer). […]

| Molecule | inhibition of PMA/Ionomycin-induced NF-κB luciferase activity [1] | IC50 [1] [nM] | also measured |
| --- | --- | --- | --- |
| z-ITED-fmk [reference compound] | significantly inhibit |  |  |
| COCCCNc1nc2cc(C)c(C)cc2n1CC(=O)c1cc(C(C)(C)C)c(OC)c(C(C)(C)C)c1 [Compound 34, 2-(2-(3-methoxypropylamino)-5,6-dimethyl-1H-benzo[d]imidazol-1-yl)-1-(3,5-di-tert-butyl-4-methoxyphenyl)ethanone] |  | 250 |  |
| COC(=O)C1=C(CN2CCCc3ccccc32)NC(=O)NC1c1ccc(F)cc1 (centres unmarked) [CID-2998237] | less potent |  | effect on PMA/Ionomycin-induced IL-8 production [2]: minimal effect; inhibition of TNF-induced NF-κB reporter gene activity [3]: some modest inhibition |
| CCCCNc1nc2cc(C)c(C)cc2n1CC(=O)c1cc(C(C)(C)C)c(O)c(C(C)(C)C)c1 [Compound 40, 1-(3,5-di-tert-butyl-4-hydroxyphenyl)-2-(2-(butylamino)-5,6-dimethyl-1H-benzo[d]imidazol-1-yl)ethanone] |  | 100 |  |
| COc1c(C(C)(C)C)cc(C(=O)Cn2c(NCCCO)nc3cc(C)c(C)cc32)cc1C(C)(C)C [Compound 32, 1-(3,5-di-tert-butyl-4-methoxyphenyl)-2-(2-(3-hydroxypropylamino)-5,6-dimethyl-1H-benzo[d]imidazol-1-yl)ethanone] |  | 70 |  |
| COCCCNc1nc2cc(C)c(C)cc2n1CC(=O)c1cc(C(C)(C)C)c(O)c(C(C)(C)C)c1 [Compound 33, 2-(2-(3-methoxypropylamino)-5,6-dimethyl-1H-benzo[d]imidazol-1-yl)-1-(3,5-di-tert-butyl-4-hydroxyphenyl)ethanone] |  | 250 |  |
